Data as given in ChEMBL document CHEMBL1255407, “High diversity of extended-spectrum beta-lactamases in Escherichia coli isolates from Italian broiler flocks” (2010).

Each molecule was assayed on Escherichia coli (assay: Antimicrobial activity against Escherichia coli isolates producing extended-spectrum beta-lactamases bla(CTX-M-1), bla(CTX-M-32) and bla(SHV-12) assessed as resistant isolates isolated from Italian broiler flocks by disk diffusion method).

Structure (SMILES) | Activity [%]
O=C(O)c1cn(C2CC2)c2cc(N3CCNCC3)c(F)cc2c1=O [CIPROFLOXACIN] | 44
CCn1cc(C(=O)O)c(=O)c2ccc(C)nc21 [NALIDIXIC ACID] | 83
CN(C)[C@@H]1C(O)=C(C(N)=O)C(=O)[C@@]2(O)C(O)=C3C(=O)c4c(O)cccc4[C@@](C)(O)[C@H]3C[C@@H]12 [TETRACYCLINE] | 94

Each molecule was assayed on Escherichia coli (assay: Antimicrobial activity against Escherichia coli isolates producing extended-spectrum beta-lactamases bla(CTX-M-1), bla(CTX-M-32) and bla(SHV-12) isolated from Italian broiler flocks by agar dilution method).
Format: functional

MIC [µg/mL] | Structure (SMILES)
≥ 8 | CO/N=C(\C(=O)N[C@@H]1C(=O)N2C(C(=O)O)=C(CSC(=O)c3ccco3)CS[C@H]12)c1csc(N)n1 [CEFTIOFUR]
≥ 2 | CO/N=C(\C(=O)N[C@@H]1C(=O)N2C(C(=O)O)=C(COC(C)=O)CS[C@H]12)c1csc(N)n1 [CEFOTAXIME]

Structure (SMILES) | MIC [µg/mL]
O=C(O)c1cn(C2CC2)c2cc(N3CCNCC3)c(F)cc2c1=O [CIPROFLOXACIN] | < 0.03
